{
  "source": "paper PMC5282848",
  "about": "“Ancient coexistence of norepinephrine, tyramine, and octopamine signaling in bilaterians” (BMC Biology, 2017)",
  "assay_in_all_cases": "Ca2+ mobilization, GFP-apoaequorin luminescence in CHO-K1 with Gα-16",
  "key": {"[1]": {"biological_target": "T1, P. dumerilii Octopamine α (Platynereis dumerilii, UniProt A0A1J0F445)", "T1 construct": "full-length in pcDNA3.1(+), expressed in CHO-K1 with Gα-16 and GFP-apoaequorin", "T1 sequence (A0A1J0F445 1-603)": "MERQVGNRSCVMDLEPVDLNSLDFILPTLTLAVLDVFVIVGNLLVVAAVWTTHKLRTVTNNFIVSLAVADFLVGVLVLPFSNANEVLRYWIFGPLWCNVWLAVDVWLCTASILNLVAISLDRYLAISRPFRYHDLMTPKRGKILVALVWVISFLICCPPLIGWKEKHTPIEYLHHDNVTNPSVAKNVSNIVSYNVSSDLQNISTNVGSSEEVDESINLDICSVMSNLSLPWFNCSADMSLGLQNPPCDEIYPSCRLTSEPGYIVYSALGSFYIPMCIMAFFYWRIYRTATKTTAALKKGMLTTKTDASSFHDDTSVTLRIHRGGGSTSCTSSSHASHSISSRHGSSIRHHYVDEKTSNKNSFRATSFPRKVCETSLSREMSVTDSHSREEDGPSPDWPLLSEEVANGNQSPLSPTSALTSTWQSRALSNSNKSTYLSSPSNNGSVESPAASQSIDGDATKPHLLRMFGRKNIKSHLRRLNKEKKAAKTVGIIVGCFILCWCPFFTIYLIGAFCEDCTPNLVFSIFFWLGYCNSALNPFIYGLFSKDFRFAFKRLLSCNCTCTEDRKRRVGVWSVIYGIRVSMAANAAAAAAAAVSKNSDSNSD", "format": "cell-based", "source_text": "Ca2+ mobilization, GFP-apoaequorin luminescence in CHO-K1 with Gα-16 on P. dumerilii Octopamine α"}, "[2]": {"tested_on": "T2, S. kowalevskii Octopamine α", "T2 construct": "gene Octopamine alpha receptor; full-length in pcDNA3.1(+), expressed in CHO-K1 with Gα-16 and GFP-apoaequorin", "format": "cell-based, Saccoglossus kowalevskii", "conditions": "agonist, HBSS, 1.8 mM Ca2+, 10 mM glucose", "source_text": "Ca2+ mobilization, GFP-apoaequorin luminescence in CHO-K1 with Gα-16 on S. kowalevskii Octopamine α"}, "P. dumerilii Tyramine-2": {"biological_target": "T3, P. dumerilii Tyramine-2 (Platynereis dumerilii, UniProt A0A1J0F4P1)", "T3 construct": "full-length in pcDNA3.1(+), expressed in CHO-K1 with Gα-16 and GFP-apoaequorin", "T3 sequence (A0A1J0F4P1 1-460)": "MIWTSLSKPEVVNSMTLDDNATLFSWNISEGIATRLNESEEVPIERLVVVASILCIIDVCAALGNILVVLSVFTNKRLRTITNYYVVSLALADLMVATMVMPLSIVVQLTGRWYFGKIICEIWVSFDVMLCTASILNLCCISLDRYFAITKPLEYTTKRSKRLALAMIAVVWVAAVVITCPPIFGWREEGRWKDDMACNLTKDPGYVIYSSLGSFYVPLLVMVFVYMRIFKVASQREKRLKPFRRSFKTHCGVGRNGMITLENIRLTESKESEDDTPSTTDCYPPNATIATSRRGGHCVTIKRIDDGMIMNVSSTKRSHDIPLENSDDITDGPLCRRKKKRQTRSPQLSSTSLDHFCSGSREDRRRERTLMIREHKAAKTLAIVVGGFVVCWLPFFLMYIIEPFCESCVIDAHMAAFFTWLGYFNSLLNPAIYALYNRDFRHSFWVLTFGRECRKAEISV", "format": "cell-based", "source_text": "Ca2+ mobilization, GFP-apoaequorin luminescence in CHO-K1 with Gα-16 on P. dumerilii Tyramine-2"}, "[3]": {"biological_target": "T4, S. kowalevskii Tyramine-2A (Saccoglossus kowalevskii, UniProt A0ABM0GNT8)", "T4 construct": "gene LOC100366600; full-length in pcDNA3.1(+), expressed in CHO-K1 with Gα-16 and GFP-apoaequorin", "T4 sequence (A0ABM0GNT8 1-458)": "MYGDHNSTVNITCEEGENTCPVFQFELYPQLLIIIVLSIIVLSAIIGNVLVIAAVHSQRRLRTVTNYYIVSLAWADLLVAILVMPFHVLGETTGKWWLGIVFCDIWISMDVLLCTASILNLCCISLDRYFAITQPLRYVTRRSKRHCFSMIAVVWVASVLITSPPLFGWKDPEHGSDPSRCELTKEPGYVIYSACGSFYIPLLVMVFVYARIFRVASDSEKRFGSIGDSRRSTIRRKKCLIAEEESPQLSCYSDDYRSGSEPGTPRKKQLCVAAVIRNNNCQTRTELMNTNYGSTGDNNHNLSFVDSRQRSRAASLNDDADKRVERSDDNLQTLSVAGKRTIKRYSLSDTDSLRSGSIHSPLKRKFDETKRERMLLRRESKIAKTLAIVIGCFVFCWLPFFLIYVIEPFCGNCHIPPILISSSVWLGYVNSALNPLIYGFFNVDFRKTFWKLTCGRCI", "format": "cell-based", "source_text": "Ca2+ mobilization, GFP-apoaequorin luminescence in CHO-K1 with Gα-16 on S. kowalevskii Tyramine-2A"}, "[4]": {"biological_target": "T5, S. kowalevskii Tyramine-1 (Saccoglossus kowalevskii, UniProt A0ABM0H1U8)", "T5 construct": "gene LOC100368763; full-length in pcDNA3.1(+), expressed in CHO-K1 with Gα-16 and GFP-apoaequorin", "T5 sequence (A0ABM0H1U8 1-430)": "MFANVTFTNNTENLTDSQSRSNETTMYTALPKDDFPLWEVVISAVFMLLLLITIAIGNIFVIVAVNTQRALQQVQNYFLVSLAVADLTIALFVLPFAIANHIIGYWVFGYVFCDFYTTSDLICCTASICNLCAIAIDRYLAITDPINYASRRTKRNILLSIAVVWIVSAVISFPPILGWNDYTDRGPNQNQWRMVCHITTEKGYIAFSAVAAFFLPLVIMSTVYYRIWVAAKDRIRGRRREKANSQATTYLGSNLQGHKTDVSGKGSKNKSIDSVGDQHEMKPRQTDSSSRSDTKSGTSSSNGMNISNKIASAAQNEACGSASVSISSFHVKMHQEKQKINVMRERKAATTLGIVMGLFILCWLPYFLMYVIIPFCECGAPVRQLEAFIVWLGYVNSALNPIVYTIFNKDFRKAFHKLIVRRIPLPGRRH", "format": "cell-based", "source_text": "Ca2+ mobilization, GFP-apoaequorin luminescence in CHO-K1 with Gα-16 on S. kowalevskii Tyramine-1"}, "[5]": {"biological_target": "T6, S. kowalevskii Tyramine-2B (Saccoglossus kowalevskii, UniProt A0ABM0LZ08)", "T6 construct": "gene LOC102801068; full-length in pcDNA3.1(+), expressed in CHO-K1 with Gα-16 and GFP-apoaequorin", "T6 sequence (A0ABM0LZ08 1-489)": "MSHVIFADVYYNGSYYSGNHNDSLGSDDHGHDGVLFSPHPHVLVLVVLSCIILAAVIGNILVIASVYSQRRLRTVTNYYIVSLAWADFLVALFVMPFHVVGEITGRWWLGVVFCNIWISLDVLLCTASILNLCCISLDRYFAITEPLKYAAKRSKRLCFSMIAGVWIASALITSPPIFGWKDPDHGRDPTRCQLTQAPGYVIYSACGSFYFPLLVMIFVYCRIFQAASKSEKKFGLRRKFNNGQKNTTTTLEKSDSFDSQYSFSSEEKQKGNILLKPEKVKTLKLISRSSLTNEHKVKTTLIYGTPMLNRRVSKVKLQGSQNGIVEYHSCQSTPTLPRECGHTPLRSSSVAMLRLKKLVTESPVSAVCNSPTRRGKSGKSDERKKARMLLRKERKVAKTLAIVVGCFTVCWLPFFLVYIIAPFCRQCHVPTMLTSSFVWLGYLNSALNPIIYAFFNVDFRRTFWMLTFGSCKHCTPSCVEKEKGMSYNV", "format": "cell-based", "source_text": "Ca2+ mobilization, GFP-apoaequorin luminescence in CHO-K1 with Gα-16 on S. kowalevskii Tyramine-2B"}, "P. dumerilii Tyramine-1": {"biological_target": "T7, P. dumerilii Tyramine-1 (Platynereis dumerilii, UniProt A0A0K0PUV5)", "T7 construct": "full-length in pcDNA3.1(+), expressed in CHO-K1 with Gα-16 and GFP-apoaequorin", "T7 sequence (A0A0K0PUV5 1-428)": "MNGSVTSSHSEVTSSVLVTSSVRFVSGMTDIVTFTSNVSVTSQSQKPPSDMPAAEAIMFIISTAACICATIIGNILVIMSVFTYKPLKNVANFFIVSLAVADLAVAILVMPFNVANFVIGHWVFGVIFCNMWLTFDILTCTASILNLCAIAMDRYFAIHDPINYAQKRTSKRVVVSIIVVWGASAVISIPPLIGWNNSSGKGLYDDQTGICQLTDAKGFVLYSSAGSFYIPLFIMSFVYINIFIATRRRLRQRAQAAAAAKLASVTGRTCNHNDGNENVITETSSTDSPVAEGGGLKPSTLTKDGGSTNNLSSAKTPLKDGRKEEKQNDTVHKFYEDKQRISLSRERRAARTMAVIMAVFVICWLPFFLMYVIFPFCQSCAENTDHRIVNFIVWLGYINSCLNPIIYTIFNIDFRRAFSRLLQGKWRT", "format": "cell-based", "source_text": "Ca2+ mobilization, GFP-apoaequorin luminescence in CHO-K1 with Gα-16 on P. dumerilii Tyramine-1"}},
  "note": "Like-named read-outs stand apart in the source and are kept apart here.",
  "data": [
    {"compound": "Clc1cccc(Cl)c1NC1=NCCN1", "note": "[clonidine]", "values": [
      {"measurement": "EC50", "setting": "[1]; read-out: Clonidine", "value": 140, "unit": "nM"},
      {"measurement": "EC50", "setting": "[2]; read-out: Clonidine", "value": 160, "unit": "nM"}
    ]},
    {"compound": "NC[C@H](O)c1ccc(O)cc1", "note": "[octopamine]", "values": [
      {"measurement": "EC50", "setting": "[1]; read-out: Octopamine", "value": 260, "unit": "nM"},
      {"measurement": "EC50", "setting": "[2]; read-out: Octopamine", "value": 690, "unit": "nM"}
    ]},
    {"compound": "COC(=O)[C@@H]1[C@H]2C[C@H]3c4[nH]c5ccccc5c4CCN3C[C@@H]2CC[C@@H]1O", "note": "[yohimbine]", "values": [
      {"measurement": "IC50", "setting": "[1]; read-out: Yohimbine", "value": 9, "unit": "nM"}
    ]},
    {"compound": "NCCc1ccc(O)cc1", "note": "[tyramine]", "values": [
      {"measurement": "EC50", "setting": "P. dumerilii Tyramine-2", "value": 7, "unit": "nM"},
      {"measurement": "EC50", "setting": "[3]", "value": 1, "unit": "nM"},
      {"measurement": "EC50", "setting": "[4]", "value": 86, "unit": "µM"},
      {"measurement": "EC50", "setting": "[5]", "value": 5.9, "unit": "nM"},
      {"measurement": "EC50", "setting": "P. dumerilii Tyramine-1", "value": 11, "unit": "nM"}
    ]}
  ]
}
